Measurements from patent publication US20160130443A1, “PHTHALOCYANINE DYE USED FOR COLOR FILTER OF A LCD” (DOW GLOBAL TECHNOLOGIES LLC, priority 2013, published 2016).

Columns and labels:
Format in all cases: physicochemical
[1] = Solubility of dye in organic solvent at 25° C.
[2] = Thermal stability of dyes (mass loss measured by TGA); settings: air atmosphere
Description: (1) Thermal Stability of Dyes (Mass Loss Measured by TGA):
The thermal stability of dye itself was determined by the mass loss of dye measured by TGA under air atmosphere at 230° C. for 1 hour. This evaluation reflects chemical stability of the dye itself

[3] = Thermal stability of films (chromaticity difference before and after hard baking); settings: for Thermal stability of a film at 230° C. (ΔEab): film with acrylic resin baked at 230° C. under air for 1 hour, smaller = better heat resistance; for Thermal stability (in words): summary referring to Table 1
Description: The obtained dry film was baked at 230° C. under air for 1 hour to evaluate thermal stability of the film. Optical performance before and after baking (ΔEab value) was 1.6. A smaller ΔEab value indicates better heat resistance.
(4) Thermal Stability of Films (Chromaticity):
The wet film after spin coating is dried in oven at 90° C. for 30 minutes and then soft baked at 150° C. for 15 minutes. The chromaticity coordinates (L, a, b) are recorded with UltraScan Pro (Hunterlab) colorimeter. D65 light source is used and results are based on CIE Lab coordinates. After that the film is hard baked at target temperature (230° C.) for 1 hour and the new chromaticity coordinates (L′, a′, b′) are recorded with the method above. The thermal stability of a film is indicated by the difference of chromaticity coordinate before and after hard baking represented by the following formula;
ΔE=√{square root over ((L−L′)^2+(a−a′)^2+(b−b′)^2)}

Row | Molecule | Solubility in PGMEA at 25° C. (wt %) [1] | Solubility in cyclohexanone at 25° C. (wt %) [1] | Mass loss measured by TGA at 230° C. for 1 hour (%) [2] | Thermal stability of a film at 230° C. (ΔEab) [3] | Thermal stability (in words) [3] | Solubility in cyclohexanone and PGMEA (in words) ([1]; summary referring to Table 1)
1 | CNc1ccc(Nc2cccc(C)c2)c2c1C(=O)c1ccccc1C2=O [compound 1, C.I. solvent blue 63] | 1.23 wt % | 3.0 wt % | 14.04% | 18.4 | very poor thermal stability | –
2 | CCCCOc1ccc(OCCCC)c2c1-c1nc-2nc2[nH]c(nc3nc(nc4[nH]c(n1)c1c(OCCCC)ccc(OCCCC)c41)-c1c(OCCCC)ccc(OCCCC)c1-3)c1c(OCCCC)ccc(OCCCC)c21 [compound 3] | 0.17 wt % | 9.0 wt % | 13.08% | 21.5 | very poor thermal stability | –
3 | c1ccc2c(c1)C1=Nc3c4ccccc4c4[n]3[Cu-2]35[n]6c(c7ccccc7c6=NC6=[N+]3C(=N4)c3ccccc36)=NC2=[N+]15 [compound 4] | insoluble | insoluble | 0.02% | – | – | insoluble
4 | C.I. disperse red 343 [compound 2] | 1.98 wt % | 4.0 wt % | 9.56% | 13.3 | very poor thermal stability | –
